Paper PMC6471062, “Suppression of the Ubiquitin Pathway by Small Molecule Binding to Ubiquitin Enhances Doxorubicin Sensitivity of the Cancer Cells” (Molecules, 2019)

Assays:
[1] = molecular target: UCHL1 (Homo sapiens); assay: Deubiquitination assay, cleavage of GST-Ubiquitin-HA by UCHL1 (SDS-PAGE band intensity); assay type: biochemical
Method: (§1) For in vitro ubiquitination assays, 500 µM of ubiquitin was used for each ubiquitination reaction as described previously, in the absence or presence of 50–500 µM of CR. […] The generation of GST-ubiquitin from GST-Ubiquitin-HA as the mobility shifts were analyzed on 12.5% SDS-PAGE visualized by Coomassie blue staining. Band intensities were quantified by ImageJ [55] and used to generate the IC50 curves (log inhibitor vs. normalized response with variable slope) by GraphPad Prism version 6.0 for Windows (GraphPad Software, San Diego, CA, USA, www.graphpad.com).

[2] = tested on: Ubc13; assay: In vitro K63 polyubiquitination reaction with Ubc13; assay type: biochemical; conditions: purified Ubc13 (Mms2/Ubc13), increasing CR (50–500 µM), 500 µM ubiquitin, 37 °C
Method: Figure 5 CR inhibits K48- and K63- polyubiquitination in vitro. (a) Interacting surface of ubiquitin when complex with E2-25K and Ubc13 compared with the surface used for CR binding. (b,c) CR inhibits K48- (b) and K63-ubiquitinations (c). First, mono ubiquitin was mixed with UBA1, E2-25K or complex Mms2/Ubc13, and 0–500 µM CR in the presence or absence of ATP regeneration system. Then the mixture was incubated at 37 °C for […]. The reaction was stopped by adding 5X SDS loading buffer and the results were analyzed with 15% SDS-PAGE.
as §1, with “CR. The reactions were incubated at 37 °C for 4 h and 16 h for K63- and K48 polyubiquitination respectively. The reaction was terminated by adding 5X SDS sampling buffer and results were subjected to 15% SDS-PAGE followed by Coomassie Blue staining for analyses.” for “CR.”

[3] = tested on: H1299 cells; assay: Dox-induced K48- and K63-polyubiquitination in cells (immunofluorescence staining, Western blot); assay type: cell-based; conditions: H1299, 5 or 10 μM CR 12 h pretreatment, then 5 μM Dox 12 h
Method: Figure 6 CR inhibits Dox-induced ubiquitination in the cells. (a) Immunofluorescence staining of H1299 cells treated with or without 5 (+) and 10 (++) μM CR for 12 h followed by addition of Dox to a final concentration of 5 μM, with incubation for 12 h. The cells were subjected to immunofluorescence staining using the antibodies against K48 (αK48) and K63 polyubiquitins (αK63). (b) K48 or K63 polyubiquitin level in Figure 6a was quantified by fluorescence signal. At least seven random regions acquired in confocal images were sampled and normalized against DAPI intensity for quantification. (c) Immunoblots of samples in Figure 6a using the indicated antibodies. […] Statistical significance was calculated by the Student’s t-test (* p < 0.05, ** p < 0.01, *** p < 0.001).
Cells were seeded in the SPL 4 wells cell culture chamber slide 24 h before experiment. […] Subsequently, cells were incubated with primary antibody at 1/200 dilution in blocking buffer overnight and then washed with blocking buffer five times (5 min each) before incubation with fluorescence-conjugated secondary antibody at 1/200 dilution in blocking buffer for 1 h. […] Images acquired in confocal imaging were subjected to fluorescence intensity analysis using ImageJ [55]. Fluorescence signal representing a particular ubiquitin chain level was analyzed and normalized with the intensity of DAPI. […]

[4] = Cell membrane permeability (inferred from intracellular action); conditions: in contrast to CSB6B; inferred from intracellular effect on ubiquitination

UCHL1 (Homo sapiens), sequence (P09936 whole entry, other chains not shown): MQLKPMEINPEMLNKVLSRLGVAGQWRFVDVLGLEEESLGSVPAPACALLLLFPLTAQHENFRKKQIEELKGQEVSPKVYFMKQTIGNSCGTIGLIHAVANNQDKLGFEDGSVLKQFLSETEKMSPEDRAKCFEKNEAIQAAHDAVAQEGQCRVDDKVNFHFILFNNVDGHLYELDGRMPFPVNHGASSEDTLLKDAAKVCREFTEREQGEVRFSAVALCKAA

For `Nc1c(/N=N/c2ccc(-c3ccc(/N=N/c4cc(S(=O)(=O)O)c5ccccc5c4N)cc3)cc2)cc(S(=O)(=O)O)c2ccccc12` [CR, Congo red], the IC50 [1] was 26.9 ± 2.99 µM, the “Inhibition of K63 polyubiquitination” value [2] was “effectively inhibited by CR in a dose-dependent manner” and the “Effect on Dox-triggered K48 and K63 ubiquitination” value [3] was “suppressed Dox-triggered ubiquitination in both K48 and K63”. For the same compound, the Cell permeability [4] was “better cell permeability”.
